Test results reported in publication PMC9841532, “Exploring the Effect of Halogenation in a Series of Potent and Selective A2B Adenosine Receptor Antagonists” (Journal of Medicinal Chemistry, 2022).

Columns and labels:
hA2BAR = molecular target: T1, hA2BAR (Homo sapiens, UniProt P29275); experiment: Radioligand binding competition, [3H]DPCPX, membranes from HEK-293-A2B cells; parameters: Exp. dG: unit not given here; conditions: for Ki: read-out: Ki hA2B; for % at 1 μM hA2B (percentage displacement of specific binding): [3H]DPCPX, human HEK-293 cells, n = 2
T1 construct: host or cells: HEK-293 (HEK-293-A2B) cell membranes
T1 sequence (P29275 1-332): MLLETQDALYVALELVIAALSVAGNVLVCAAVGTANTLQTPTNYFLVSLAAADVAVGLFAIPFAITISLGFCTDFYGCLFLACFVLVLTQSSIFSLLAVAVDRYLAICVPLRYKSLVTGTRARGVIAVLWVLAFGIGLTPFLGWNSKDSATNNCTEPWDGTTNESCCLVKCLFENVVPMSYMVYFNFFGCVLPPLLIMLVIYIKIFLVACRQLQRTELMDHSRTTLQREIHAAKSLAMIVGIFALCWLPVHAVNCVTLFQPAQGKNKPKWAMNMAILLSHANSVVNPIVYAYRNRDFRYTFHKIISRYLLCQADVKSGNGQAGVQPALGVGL
Method: (§1) All ligands reported in Tables 1–5 were obtained and tested as racemic mixtures. The whole set was evaluated in silico with a combination of a Rdkit[37] PAINS filter and Instant JChem from Chemaxon (https://www.chemaxon.com), to rule out the possibility that these ligands can be promiscuous pan-assay interference compounds (PAINS) and to assess their bioavailability, respectively. […] The stereoisomers of selected compounds were obtained by chiral resolution and tested at the four human AR subtypes in their enantiopure forms (Table 6).
(§2) A brief description is given below. […] Non-specific binding was determined in the presence of 10 μM R-PIA. The reaction mixture was incubated at 25 °C for 60 min. […] The reaction mixture was incubated at 25 °C for 30 min. […] The reaction mixture was incubated at 25 °C for 30 min. […] Non-specific binding was determined in the presence of 100 μM R-PIA. […] After the incubation time, membranes were washed and filtered and radioactivity was detected in a MicroBeta TriLux reader (PerkinElmer).

hA3AR = molecular target: T2, hA3AR (Homo sapiens, UniProt P0DMS8); experiment: Radioligand binding competition, [3H]NECA, membranes from HeLa-A3 cells; conditions: for % at 1 μM hA3 (percentage displacement of specific binding): [3H]NECA, human HeLa cells, n = 2
T2 construct: expressed in transfected cells; host or cells: HeLa (HeLa-A3) cell membranes
T2 sequence (P0DMS8 1-318): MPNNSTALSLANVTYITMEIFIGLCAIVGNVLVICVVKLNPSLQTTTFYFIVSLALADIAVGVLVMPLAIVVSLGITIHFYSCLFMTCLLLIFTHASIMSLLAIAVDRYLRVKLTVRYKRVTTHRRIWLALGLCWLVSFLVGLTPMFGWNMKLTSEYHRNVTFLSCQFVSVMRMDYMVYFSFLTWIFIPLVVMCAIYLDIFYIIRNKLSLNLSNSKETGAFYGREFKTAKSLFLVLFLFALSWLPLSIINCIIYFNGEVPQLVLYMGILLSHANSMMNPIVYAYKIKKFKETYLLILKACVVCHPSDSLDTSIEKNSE
Method: as §1, §2

hA1AR = molecular target: T3, hA1AR (Homo sapiens, UniProt P30542); experiment: Radioligand binding competition, [3H]DPCPX, membranes from CHO-A1 cells; conditions: 1 μM, [3H]DPCPX, human CHO cells, n = 2
T3 sequence (P30542 1-326): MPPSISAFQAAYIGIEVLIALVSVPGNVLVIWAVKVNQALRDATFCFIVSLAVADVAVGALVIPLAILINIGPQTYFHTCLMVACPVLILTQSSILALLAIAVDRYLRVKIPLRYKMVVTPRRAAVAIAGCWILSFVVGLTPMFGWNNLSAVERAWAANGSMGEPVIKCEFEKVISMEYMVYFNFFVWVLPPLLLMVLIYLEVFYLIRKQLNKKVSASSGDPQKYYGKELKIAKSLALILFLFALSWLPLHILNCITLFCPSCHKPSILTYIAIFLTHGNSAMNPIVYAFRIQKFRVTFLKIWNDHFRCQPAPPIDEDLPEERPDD
Method: as §1, §2

hA2AAR = molecular target: T4, hA2AAR (Homo sapiens, UniProt P29274); experiment: Radioligand binding competition, [3H]ZM241385, membranes from HeLa-A2A cells; conditions: 1 μM, [3H]ZM241385, human HeLa cells, n = 2
T4 construct: expressed in transfected cells; host or cells: HeLa (HeLa-A2A) cell membranes
T4 sequence (P29274 whole entry): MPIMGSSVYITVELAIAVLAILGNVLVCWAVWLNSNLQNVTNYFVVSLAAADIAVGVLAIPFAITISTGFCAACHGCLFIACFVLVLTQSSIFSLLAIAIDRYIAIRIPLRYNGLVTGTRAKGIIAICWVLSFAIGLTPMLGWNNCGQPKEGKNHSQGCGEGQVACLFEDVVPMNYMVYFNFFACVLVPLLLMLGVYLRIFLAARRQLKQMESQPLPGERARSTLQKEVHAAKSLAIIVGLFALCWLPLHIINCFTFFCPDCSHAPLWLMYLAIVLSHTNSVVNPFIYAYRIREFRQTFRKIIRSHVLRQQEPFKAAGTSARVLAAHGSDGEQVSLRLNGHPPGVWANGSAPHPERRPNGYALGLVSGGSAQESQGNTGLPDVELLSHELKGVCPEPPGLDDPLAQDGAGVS
Method: as §1, §2

[1] = displacement of specific [3H]DPCPX binding in human HEK-293 cells, n = 3

## CCOC(=O)C1=C(C)Nc2nc3cc(F)c(F)cc3n2C1c1ccco1 (stereo not drawn) [14a]
hA2BAR; [1]
  Ki: 44.1 ± 1.7 nM
hA3AR
  % at 1 μM hA3 (percentage displacement of specific binding): 2%
hA1AR
  % at 1 μM hA1 (percentage displacement of specific binding): 1%
hA2AAR
  % at 1 μM hA2A (percentage displacement of specific binding): 2%

## CCOC(=O)C1=C(C)Nc2nc3cc(F)c(F)cc3n2C1c1ccoc1 (stereo not drawn) [14c]
hA2BAR; [1]
  Ki: 28.2 ± 0.8 nM
hA3AR
  % at 1 μM hA3 (percentage displacement of specific binding): 17%
hA1AR
  % at 1 μM hA1 (percentage displacement of specific binding): 22%
hA2AAR
  % at 1 μM hA2A (percentage displacement of specific binding): 36%

## CC1=C(C(=O)OC(C)C)C(c2ccoc2)n2c(nc3cc(F)c(F)cc32)N1 (stereo not drawn) [14d]
hA2BAR; [1]
  Ki: 52.9 ± 1.5 nM
hA3AR
  % at 1 μM hA3 (percentage displacement of specific binding): 20%
hA1AR
  % at 1 μM hA1 (percentage displacement of specific binding): 17%
hA2AAR
  % at 1 μM hA2A (percentage displacement of specific binding): 16%

## CCOC(=O)C1=C(C)Nc2nc3cc(F)c(F)cc3n2C1c1cccs1 (stereo not drawn) [14e]
hA2BAR
  % at 1 μM hA2B (percentage displacement of specific binding): 25%
hA3AR
  % at 1 μM hA3 (percentage displacement of specific binding): 5%
hA1AR
  % at 1 μM hA1 (percentage displacement of specific binding): 2%
hA2AAR
  % at 1 μM hA2A (percentage displacement of specific binding): 3%

## CC1=C(C(=O)OC(C)C)C(c2cccs2)n2c(nc3cc(F)c(F)cc32)N1 (stereo not drawn) [14f]
hA2BAR
  % at 1 μM hA2B (percentage displacement of specific binding): 1%
hA3AR
  % at 1 μM hA3 (percentage displacement of specific binding): 10%
hA1AR
  % at 1 μM hA1 (percentage displacement of specific binding): 1%
hA2AAR
  % at 1 μM hA2A (percentage displacement of specific binding): 1%

## CCOC(=O)C1=C(C)Nc2nc3cc(F)c(F)cc3n2C1c1ccsc1 (stereo not drawn) [14g]
hA2BAR; [1]
  Ki: 519 ± 7 nM
hA3AR
  % at 1 μM hA3 (percentage displacement of specific binding): 5%
hA1AR
  % at 1 μM hA1 (percentage displacement of specific binding): 1%
hA2AAR
  % at 1 μM hA2A (percentage displacement of specific binding): 1%

## CC1=C(C(=O)OC(C)C)C(c2ccsc2)n2c(nc3cc(F)c(F)cc32)N1 (stereo not drawn) [14h]
hA2BAR
  % at 1 μM hA2B (percentage displacement of specific binding): 43%
hA3AR
  % at 1 μM hA3 (percentage displacement of specific binding): 4%
hA1AR
  % at 1 μM hA1 (percentage displacement of specific binding): 1%
hA2AAR
  % at 1 μM hA2A (percentage displacement of specific binding): 3%

## CCOC(=O)C1=C(C)Nc2nc3cc(Cl)c(Cl)cc3n2C1c1ccco1 (stereo not drawn) [14i]
hA2BAR
  % at 1 μM hA2B (percentage displacement of specific binding): 9%
hA3AR
  % at 1 μM hA3 (percentage displacement of specific binding): 1%
hA1AR
  % at 1 μM hA1 (percentage displacement of specific binding): 2%
hA2AAR
  % at 1 μM hA2A (percentage displacement of specific binding): 5%

## CC1=C(C(=O)OC(C)C)C(c2ccco2)n2c(nc3cc(Cl)c(Cl)cc32)N1 (stereo not drawn) [14j]
hA2BAR; [1]
  Ki: 117 ± 5 nM
hA3AR
  % at 1 μM hA3 (percentage displacement of specific binding): 7%
hA1AR
  % at 1 μM hA1 (percentage displacement of specific binding): 43%
hA2AAR
  % at 1 μM hA2A (percentage displacement of specific binding): 12%

## CCOC(=O)C1=C(C)Nc2nc3cc(Cl)c(Cl)cc3n2C1c1ccoc1 (stereo not drawn) [14k]
hA2BAR; [1]
  Ki: 54.7 ± 3.2 nM
hA3AR
  % at 1 μM hA3 (percentage displacement of specific binding): 6%
hA1AR
  % at 1 μM hA1 (percentage displacement of specific binding): 33%
hA2AAR
  % at 1 μM hA2A (percentage displacement of specific binding): 34%

## CC1=C(C(=O)OC(C)C)C(c2ccoc2)n2c(nc3cc(Cl)c(Cl)cc32)N1 (stereo not drawn) [14l]
hA2BAR
  % at 1 μM hA2B (percentage displacement of specific binding): 36%
hA3AR
  % at 1 μM hA3 (percentage displacement of specific binding): 8%
hA1AR
  % at 1 μM hA1 (percentage displacement of specific binding): 4%
hA2AAR
  % at 1 μM hA2A (percentage displacement of specific binding): 31%

## CCOC(=O)C1=C(C)Nc2nc3cc(Cl)c(Cl)cc3n2C1c1cccs1 (stereo not drawn) [14m]
hA2BAR
  % at 1 μM hA2B (percentage displacement of specific binding): 9%
hA3AR
  % at 1 μM hA3 (percentage displacement of specific binding): 11%
hA1AR
  % at 1 μM hA1 (percentage displacement of specific binding): 2%
hA2AAR
  % at 1 μM hA2A (percentage displacement of specific binding): 1%

## CC1=C(C(=O)OC(C)C)C(c2cccs2)n2c(nc3cc(Cl)c(Cl)cc32)N1 (stereo not drawn) [14n]
hA2BAR
  % at 1 μM hA2B (percentage displacement of specific binding): 1%
hA3AR
  % at 1 μM hA3 (percentage displacement of specific binding): 9%
hA1AR
  % at 1 μM hA1 (percentage displacement of specific binding): 1%
hA2AAR
  % at 1 μM hA2A (percentage displacement of specific binding): 4%

## CCOC(=O)C1=C(C)Nc2nc3cc(Cl)c(Cl)cc3n2C1c1ccsc1 (stereo not drawn) [14o]
hA2BAR
  % at 1 μM hA2B (percentage displacement of specific binding): 9%
hA3AR
  % at 1 μM hA3 (percentage displacement of specific binding): 1%
hA1AR
  % at 1 μM hA1 (percentage displacement of specific binding): 5%
hA2AAR
  % at 1 μM hA2A (percentage displacement of specific binding): 1%

## CC1=C(C(=O)OC(C)C)C(c2ccsc2)n2c(nc3cc(Cl)c(Cl)cc32)N1 (stereo not drawn) [14p]
hA2BAR; [1]
  Ki: 359 ± 4 nM
hA3AR
  % at 1 μM hA3 (percentage displacement of specific binding): 6%
hA1AR
  % at 1 μM hA1 (percentage displacement of specific binding): 2%
hA2AAR
  % at 1 μM hA2A (percentage displacement of specific binding): 1%

## CCOC(=O)C1=C(C)Nc2nc3cc(Br)c(Br)cc3n2C1c1ccco1 (stereo not drawn) [14q]
hA2BAR
  % at 1 μM hA2B (percentage displacement of specific binding): 37%
hA3AR
  % at 1 μM hA3 (percentage displacement of specific binding): 2%
hA1AR
  % at 1 μM hA1 (percentage displacement of specific binding): 1%
hA2AAR
  % at 1 μM hA2A (percentage displacement of specific binding): 17%

## CC1=C(C(=O)OC(C)C)C(c2ccco2)n2c(nc3cc(Br)c(Br)cc32)N1 (stereo not drawn) [14r]
hA2BAR; [1]
  Ki: 62.6 ± 1.9 nM
hA3AR
  % at 1 μM hA3 (percentage displacement of specific binding): 21%
hA1AR
  % at 1 μM hA1 (percentage displacement of specific binding): 11%
hA2AAR
  % at 1 μM hA2A (percentage displacement of specific binding): 28%

## CCOC(=O)C1=C(C)Nc2nc3cc(Br)c(Br)cc3n2C1c1ccoc1 (stereo not drawn) [14s]
hA2BAR
  % at 1 μM hA2B (percentage displacement of specific binding): 7%
hA3AR
  % at 1 μM hA3 (percentage displacement of specific binding): 10%
hA1AR
  % at 1 μM hA1 (percentage displacement of specific binding): 2%
hA2AAR
  % at 1 μM hA2A (percentage displacement of specific binding): 2%

## CCOC(=O)C1=C(C)Nc2nc3cc(Br)ccc3n2[C@@H]1c1ccoc1 [(R)-16s]
hA2BAR; [1]
  Ki: 1.17 ± 0.1 nM
hA3AR
  % at 1 μM hA3 (percentage displacement of specific binding): 14%
hA1AR
  % at 1 μM hA1 (percentage displacement of specific binding): 10%

## CC1=C(C(=O)OC(C)C)[C@@H](c2ccco2)n2c(nc3cc(F)ccc32)N1 [(S)-16b]
hA2BAR; [1]
  Ki hA2B: sub-nanomolar
  Ki: 0.94 ± 0.1 nM
hA3AR
  % at 1 μM hA3 (percentage displacement of specific binding): 12%
hA1AR
  % at 1 μM hA1 (percentage displacement of specific binding): 26%

## CC1=C(C(=O)OC(C)C)[C@@H](c2ccco2)n2c(nc3cc(Br)ccc32)N1 [(S)-16r]
hA2BAR; [1]
  Ki: 2.97 ± 0.4 nM
hA3AR
  % at 1 μM hA3 (percentage displacement of specific binding): 6%
hA1AR
  % at 1 μM hA1 (percentage displacement of specific binding): 32%

## CC1=C(C(=O)OC(C)C)C(c2cocn2)n2c(nc3ccccc32)N1 (stereo not drawn) [X, reference compound]
hA2BAR; experimental binding free energy, Supplementary Table S3, unit not given (errors in kcal/mol)
  Exp. dG: -10.04

## Nc1nc(NCCc2ccc(O)cc2)nc2nc(-c3ccco3)nn12 [ZM241385, 4-(2-[7-amino-2-(2-furyl)[1,2,4]triazolo[2,3-a][1,3,5]triazin-5-ylamino]ethyl)phenol, reference compound]
hA3AR; displacement of specific [3H]NECA binding in human HeLa cells, n = 3, read-out: Ki hA3
  Ki: 863 ± 4 nM
